Data published in article PMC8230565, “Bisavenathramide Analogues as Nrf2 Inductors and Neuroprotectors in In Vitro Models of Oxidative Stress and Hyperphosphorylation” (Antioxidants, 2021).

Tests used:
[1] = DPPH radical scavenging assay; details: for DPPH Scavenging at 0.1 mM, %: 0.1 mM compound; for DPPH Scavenging at 1 mM, %: 1 mM compound; for IC50: n in brackets
Description: The direct antioxidant effects of compounds 3 were investigated by studying their radical-scavenging effect on the 2,2-diphenyl-1-picrylhydrazyl free radical (DPPH^•). Thus, a 100 μL volume of a methanol solution of each compound was added to 200 μL of 100 μM methanolic DPPH^•, and the solution was kept in the dark at 37 °C for 30 min in a 96-well microliter plate. After this incubation, the absorption at 490 nm of each solution was measured with a microplate reader in order to quantitate its decrease. A blank reading was also taken to calculate the amount of remaining DPPH^•. The radical-scavenging activity exerted by compounds 3 was determined by comparison with a 10 μL of MeOH-treated blank group. Ascorbic acid, a well-known antioxidant acting as a radical scavenger, was used as reference. All samples were analyzed in triplicate. Percent inhibition of the DPPH^• radical was calculated using the equation shown below, where AbsCtrl is the absorbance of the blank group and Abss is the absorbance of the samples containing compounds 3. For each compound showing a percentage of inhibition above 60%, the IC50 value was determined using a dose–response curve obtained from measurements corresponding to at least six concentrations. %Scavenger=AbsCtrl−AbsS/AbsCtrl×100
The radical scavenging activity of all compounds was first studied by the DPPH assay, which measures the ability of antioxidant compounds to donate a hydrogen atom to the violet 2,2-diphenyl-1-picrylhydrazyl radical and transform it into a nonradical species. Thus, it is generally considered to belong to the hydrogen atom transfer (HAT) category of methods for measurement of antioxidant activity.

[2] = biological target: AChE (Electrophorus electricus) (Electrophorus electricus, UniProt O42275); test: Acetylcholinesterase inhibition (Ellman's method); format: biochemical; details: for inhibition at 10 µM: 10 μM compound, read-out: % Inhibition of EeAChE at 10 μM; for IC50: n in brackets, read-out: IC50 (EeAChE)
AChE (Electrophorus electricus), sequence (O42275 24-633): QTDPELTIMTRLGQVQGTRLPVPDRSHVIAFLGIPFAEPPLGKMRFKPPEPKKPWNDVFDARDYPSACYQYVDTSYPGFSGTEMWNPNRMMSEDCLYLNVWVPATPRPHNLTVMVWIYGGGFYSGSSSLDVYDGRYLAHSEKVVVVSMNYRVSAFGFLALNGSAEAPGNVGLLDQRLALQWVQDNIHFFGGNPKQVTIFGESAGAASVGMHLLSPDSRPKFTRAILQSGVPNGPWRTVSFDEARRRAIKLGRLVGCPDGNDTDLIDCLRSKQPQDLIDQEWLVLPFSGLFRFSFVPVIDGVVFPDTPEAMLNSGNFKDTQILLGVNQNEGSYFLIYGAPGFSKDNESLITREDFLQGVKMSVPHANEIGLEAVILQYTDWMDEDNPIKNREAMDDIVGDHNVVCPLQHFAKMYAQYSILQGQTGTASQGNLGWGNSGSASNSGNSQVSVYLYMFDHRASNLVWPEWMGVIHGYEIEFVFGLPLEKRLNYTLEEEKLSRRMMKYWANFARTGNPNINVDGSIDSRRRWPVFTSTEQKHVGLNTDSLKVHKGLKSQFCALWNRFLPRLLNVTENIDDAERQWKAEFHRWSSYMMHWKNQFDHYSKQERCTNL
Description: Ellman’s method was employed to determine the inhibitory capacity of the compounds against AChE (Electrophorus electricus). The compounds were studied at 10 μM concentration, at room temperature, using PBS (0.1 M, pH 8) as solvent. Transparent 48-well microplates (COSTAR 3548) were used and, in each one, a blank was included. The compounds were incubated with the enzyme (0.09 U/mL) and with DTNB (0.35 mM) for 10 min. Afterwards, the enzyme substrate acetylthiocholine (0.35 mM) was added to a final volume of 1 mL. The microplate was incubated at room temperature for 15 min. Then, the absorbance was measured at 420 nm using the microplate reader FluoStar Optima (BMG Labtech, Ortenberg, Baden-Württemberg, Germany). The enzymatic activity was calculated by subtracting the blank absorbance from the sample absorbance and dividing the result by the absorbance of the maximum activity subtracted from blank absorbance, and the result was multiplied by one hundred to give a percentage. The inhibitory activity was calculated by subtracting the enzymatic activity from one hundred. Selected compounds were assayed at 0.3, 1, 3, 10, and 30 μM concentrations to obtain inhibition curves. The results were plotted versus concentration to obtain IC50 values through sigmoidal non-lineal adjustment. All the experiments were performed at least in triplicate.
Bisavenanthramide B-6 and heliotropamide A have been identified as acetylcholinesterase inhibitors. This precedent, coupled with our interest in the potential characterization of our compounds as multitarget-directed ligands, led us to investigate them as inhibitors of this enzyme, an important anti-Alzheimer target.

Nrf2 = Nrf2 induction, luciferase assay in AREc32 cells; format: cell-based; details: Arec32, 24 h, read-out: CD (concentration that doubles luciferase activity)
Description: AREc32 cells (kindly shared by Dr. Professor Ronald C. Wolf, University of Dundee, Dundee, UK) were grown in Dulbecco’s modified Eagle medium (DMEM) with glutamax, supplemented with 10% fetal bovine serum (FBS), 1% of antibiotics penicillin–streptomycin, and geneticin (0.8 mg/mL, G418) (GIBCO, Madrid, Spain). Cells were harvested in a […] flask with 11 mL of the specified medium, incubated at 37 °C and 5% CO2, and they were transferred to a new flask every 4–6 days, when the confluence was around 80%. Cells were seeded in 96-well white plates (20,000 cells/well) using 100 μL/well. After 24 h, cells were treated with compounds at desired concentrations (1, 5, 10, 15 μM) for 24 h, including tert-butyl hydroquinone (TBHQ, 10 μM) as a positive control. Another 24 h later, luciferase activity was measured through a bioluminescence assay using a “Luciferase assay system” (Promega E1500, Madison, WI, USA), following the protocol given by the provider, and quantifying luminescence in an Orion II microplate luminometer (Berthold, Germany). Measurements were performed by duplicate, and the values were normalized to basal luminescence considered as 1. Nrf2 induction potency was expressed as CD values, i.e., the concentrations required to double the luciferase activity, and are calculated from dose–response curves generated by plotting fold induction of control conditions vs. compound concentration, and fitted by non-linear regression and data interpolated to value 2.
The ability of our compounds to induce Nrf2 was evaluated in the AREc32 cell line, an MCF7 stable clone that is transfected with eight copies of the luciferase reporter gene immediately after the ARE sequence. Therefore, Nrf2 activation and the subsequent transcription of the genes dependent on the ARE element also leads to expression of luciferase, which can be quantitated using a luminescence assay. AREc32 cells were incubated for 24 h with 0.3, 3, 10, 30, and 60 μM concentrations of compounds 3, and a luminescence measurement allowed CD values to be obtained. This parameter characterizes the Nrf2-inducing ability of each compound and represents the concentration required to double the luciferase activity compared to its basal expression.

Structure (SMILES): COC(=O)C1=C(C)N(Cc2ccccc2)C(=O)/C1=C\c1ccccc1 [Compound 3a, Methyl (Z)-1-Benzyl-4-benzylidene-2-methyl-5-oxo-4,5-dihydro-1H-pyrrole-3-carboxylate]
- DPPH Scavenging at 0.1 mM, % [1]: 9.7 ± 3.8%
- DPPH Scavenging at 1 mM, % [1]: 47.5 ± 4.9%
- inhibition at 10 µM [2]: 27.4%
- EC (2-fold luciferase activity) (Nrf2): 30.2 ± 1.89 µM

Structure (SMILES): COC(=O)C1=C(C)N(Cc2ccccc2)C(=O)/C1=C\c1ccc(OC)cc1 [Compound 3b, Methyl (Z)-1-Benzyl-4-(4-methoxybenzylidene)-2-methyl-5-oxo-4,5-dihydro-1H-pyrrole-3-carboxylate]
- DPPH Scavenging at 0.1 mM, % [1]: 6.5 ± 4.5%
- DPPH Scavenging at 1 mM, % [1]: 27.2 ± 6.4%
- inhibition at 10 µM [2]: 36.7%
- IC50 [2]: 29.7 ± 3 µM
- EC (2-fold luciferase activity) (Nrf2): 18 ± 1.84 µM

Structure (SMILES): COC(=O)C1=C(C)N(Cc2ccccc2)C(=O)/C1=C\c1ccc(Cl)cc1 [Compound 3c, Methyl (Z)-1-Benzyl-4-(4-chlorobenzylidene)-2-methyl-5-oxo-4,5-dihydro-1H-pyrrole-3-carboxylate]
- DPPH Scavenging at 0.1 mM, % [1]: 3.7 ± 3.8%
- DPPH Scavenging at 1 mM, % [1]: 36.6 ± 3.4%
- inhibition at 10 µM [2]: 33.5%
- EC (2-fold luciferase activity) (Nrf2): 15 ± 0.8 µM

Structure (SMILES): COC(=O)C1=C(C)N(CCc2ccccc2)C(=O)/C1=C\c1ccc2c(c1)OCO2 [Compound 3d, Methyl (Z)-4-(Benzo[d](1,3)dioxol-5-ylmethylene)-2-methyl-5-oxo-1-phenethyl-4,5-dihydro-1H-pyrrole-3-carboxylate]
- DPPH Scavenging at 0.1 mM, % [1]: 40.5 ± 5.0%
- DPPH Scavenging at 1 mM, % [1]: 41.6 ± 4.1%
- inhibition at 10 µM [2]: 25.2%
- EC (2-fold luciferase activity) (Nrf2): 17.9 ± 8.58 µM

Structure (SMILES): COC(=O)C1=C(C)N(CCc2ccccc2)C(=O)/C1=C\c1ccc(OC)cc1OC [Compound 3e, Methyl (Z)-4-(2,4-Dimethoxybenzylidene)-2-methyl-5-oxo-1-phenethyl-4,5-dihydro-1H-pyrrole-3-carboxylate]
- DPPH Scavenging at 0.1 mM, % [1]: 6.33 ± 4.2%
- DPPH Scavenging at 1 mM, % [1]: 27.0 ± 2.6%
- inhibition at 10 µM [2]: 24.3%
- EC (2-fold luciferase activity) (Nrf2): 10.4 ± 0.8 µM

Structure (SMILES): COC(=O)C1=C(C)N(CCc2ccccc2)C(=O)/C1=C\c1cc(OC)c(OC)cc1OC [Compound 3f, Methyl (Z)-2-Methyl-5-oxo-1-phenethyl-4-(2,4,5-trimethoxybenzylidene)-4,5-dihydro-1H-pyrrole-3-carboxylate]
- DPPH Scavenging at 0.1 mM, % [1]: 9.7 ± 0.6%
- DPPH Scavenging at 1 mM, % [1]: 9.7 ± 2.2%
- inhibition at 10 µM [2]: 29.3%
- EC (2-fold luciferase activity) (Nrf2): 31.1 ± 6.21 µM

Structure (SMILES): COC(=O)C1=C(C)N(CCc2ccccc2)C(=O)/C1=C\c1cc(OC)c(OC)c(OC)c1 [Compound 3g, Methyl (Z)-2-Methyl-5-oxo-1-phenethyl-4-(3,4,5-trimethoxybenzylidene)-4,5-dihydro-1H-pyrrole-3-carboxylate]
- DPPH Scavenging at 0.1 mM, % [1]: 8.1 ± 4.7%
- DPPH Scavenging at 1 mM, % [1]: 46.5 ± 2.3%
- inhibition at 10 µM [2]: 11.6%

Structure (SMILES): COC(=O)C1=C(C)N(CCc2ccccc2)C(=O)/C1=C\c1ccc(OC)c(O)c1 [Compound 3h, Methyl (Z)-4-(3-Hydroxy-4-methoxybenzylidene)-2-methyl-5-oxo-1-phenethyl-4,5-dihydro-1H-pyrrole-3-carboxylate]
- radical scavenging activity in the DPPH assay [1]: high radical scavenging activity
- DPPH Scavenging at 0.1 mM, % [1]: 89.0 ± 0.4%
- IC50 [1]: 26.3 ± 2.1 µM
- inhibition at 10 µM [2]: 24.2%
- EC (2-fold luciferase activity) (Nrf2): 36.1 ± 418 µM

Structure (SMILES): COC(=O)C1=C(C)N(CCc2ccccc2)C(=O)/C1=C\c1ccc(O)c(O)c1 [Compound 3i, Methyl (Z)-4-(3,4-Dihydroxybenzylidene)-2-methyl-5-oxo-1-phenethyl-4,5-dihydro-1H-pyrrole-3-carboxylate]
- radical scavenging activity in the DPPH assay [1]: high radical scavenging activity
- DPPH Scavenging at 0.1 mM, % [1]: 90.9 ± 0.5%
- IC50 [1]: 7.5 ± 0.4 µM
- inhibition at 10 µM [2]: 27.2%
- EC (2-fold luciferase activity) (Nrf2): < 10 µM

Structure (SMILES): COC(=O)C1=C(C)N(CCc2ccccc2)C(=O)/C1=C\c1ccc(OCc2ccccc2F)c(OC)c1 [Compound 3j, Methyl (Z)-4-[4-((2-Fluorobenzyl)oxy)-3-methoxybenzylidene]-2-methyl-5-oxo-1-phenethyl-4,5-dihydro-1H-pyrrole-3-carboxylate]
- DPPH Scavenging at 0.1 mM, % [1]: 4.3 ± 2.1%
- DPPH Scavenging at 1 mM, % [1]: 31.3 ± 3.3%
- inhibition at 10 µM [2]: 16%
- EC (2-fold luciferase activity) (Nrf2): 11.9 ± 2.83 µM

Structure (SMILES): COC(=O)C1=C(C)N(CCc2ccccc2)C(=O)/C1=C\c1ccc(OCc2ccccc2Cl)c(OC)c1 [Compound 3k, Methyl (Z)-4-[4-((2-Chlorobenzyl)oxy)-3-methoxybenzylidene]-2-methyl-5-oxo-1-phenethyl-4,5-dihydro-1H-pyrrole-3-carboxylate]
- DPPH Scavenging at 0.1 mM, % [1]: 7.3 ±1.4%
- DPPH Scavenging at 1 mM, % [1]: 27.3 ± 1.0%
- inhibition at 10 µM [2]: 40.1%
- IC50 [2]: 22.4 ± 3.2 µM
- EC (2-fold luciferase activity) (Nrf2): < 10 µM

Structure (SMILES): COC(=O)C1=C(C)N(CCc2ccccc2)C(=O)/C1=C\c1ccc(OCc2ccc(Cl)cc2)c(OC)c1 [Compound 3l, Methyl (Z)-4-[4-((4-Chlorobenzyl)oxy)-3-methoxybenzylidene]-2-methyl-5-oxo-1-phenethyl-4,5-dihydro-1H-pyrrole-3-carboxylate]
- DPPH Scavenging at 0.1 mM, % [1]: 11.3 ± 2.6%
- DPPH Scavenging at 1 mM, % [1]: 63.5 ± 2.2%
- IC50 [1]: 712.2 ± 5.4 µM
- inhibition at 10 µM [2]: 26.2%
- EC (2-fold luciferase activity) (Nrf2): 14 ± 4.45 µM

Structure (SMILES): COC(=O)C1=C(C)N(CCc2ccc(OC)c(OC)c2)C(=O)/C1=C\c1ccc(OCc2ccc(Cl)cc2)c(OC)c1 [Compound 3m, Methyl (Z)-4-[4-((4-Chlorobenzyl)oxy)-3-methoxybenzylidene]-1-(3,4-dimethoxyphenethyl)-2-methyl-5-oxo-4,5-dihydro-1H-pyrrole-3-carboxylate]
- DPPH Scavenging at 0.1 mM, % [1]: 22.8 ± 0.2%
- DPPH Scavenging at 1 mM, % [1]: 85.5 ± 2.7%
- IC50 [1]: 334 ± 22.9 µM
- inhibition at 10 µM [2]: 31.8%
- EC (2-fold luciferase activity) (Nrf2): 21.4 ± 5.72 µM

Structure (SMILES): COC(=O)C1=C(C)N(CCc2ccc(OC)c(OC)c2)C(=O)/C1=C\c1ccc(OCc2ccccc2Cl)c(OC)c1 [Compound 3n, Methyl (Z)-4-[4-((2-Chlorobenzyl)oxy)-3-methoxybenzylidene]-1-(3,4-dimethoxyphenethyl)-2-methyl-5-oxo-4,5-dihydro-1H-pyrrole-3-carboxylate]
- DPPH Scavenging at 0.1 mM, % [1]: 12.7 ± 3.5%
- DPPH Scavenging at 1 mM, % [1]: 73.6 ± 0.7%
- IC50 [1]: 552 ± 17.4 µM
- inhibition at 10 µM [2]: 17.6%
- EC (2-fold luciferase activity) (Nrf2): 14.3 ± 3.89 µM
